Where two headings read alike, the source gives them in different places.
System: CaV2.2 channels (α1B, α2δ1 and β3)
Format: cell-based, Rat
Conditions: for IC50: read-out: half inhibitory concentration for inhibition of CaV2.2 channel

Sequence	reduction of the peak Ca2+ current (1 μM)	IC50	reduction of the peak Ca2+ current
CKGKGAKCSRLMYDCCTGSCRSGKCGGYGRKKRRQRRR [MVIIA-c]	98.81±0.427%	237 nM	–
CKGKGAKCSRLMYDCCTGSCRSGKCGYGRKKRRQRRR [MVIIA-b]	–	379 nM	91.70±1.477%
CKGKGAKCSRLMYDCCTGSCRSGKCGGGYGRKKRRQRRR [MVIIA-d]	84.26±3.127%	345 nM	–
CKGKGAKCSRLMYDCCTGSCRSGKCYGRKKRRQRRR [MVIIA-a]	89.45±0.752%	413 nM	–

— patent US11814416B2, “Polypeptide capable of passing through blood-brain barrier” (SHENZHEN RUIJIAN […] COMPANY, priority 2018, dated 2023)
